Experimental data taken from patent publication US6906097B2, “8-azaprostaglandin analogs as agents for lowering intraocular pressure” (Allergan, Inc., priority 2002, dated 2005).

What was measured:
hEP3A = target: T1, hEP3A (Homo sapiens, UniProt P43115); test: Functional data, human recombinant EP3A receptor stable transfectants; type: cell-based
T1 construct: expressed in transfected cells
T1 sequence (P43115 1-390): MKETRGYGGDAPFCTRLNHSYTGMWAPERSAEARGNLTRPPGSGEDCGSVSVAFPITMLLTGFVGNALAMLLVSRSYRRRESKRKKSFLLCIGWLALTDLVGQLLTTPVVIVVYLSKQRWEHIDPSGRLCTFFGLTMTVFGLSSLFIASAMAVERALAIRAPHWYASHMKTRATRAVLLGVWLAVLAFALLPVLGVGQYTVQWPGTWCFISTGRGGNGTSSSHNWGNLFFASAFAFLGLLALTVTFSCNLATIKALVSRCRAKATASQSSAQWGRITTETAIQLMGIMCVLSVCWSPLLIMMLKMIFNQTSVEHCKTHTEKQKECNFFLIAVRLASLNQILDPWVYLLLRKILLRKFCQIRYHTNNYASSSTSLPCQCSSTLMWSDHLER
Procedure: (§1) Human Recombinant EP1, EP2, EP3, EP4, FP, TP, IP and DP Receptors: Stable Transfectants
Plasmids encoding the human EP1, EP2, EP3, EP4, FP, TP, IP and DP receptors were prepared by cloning the respective coding sequences into the eukaryotic expression vector pCEP4 (Invitrogen). The pCEP4 vector contains an Epstein Barr virus (EBV) origin of replication, which permits episomal replication in primate cell lines expressing EBV nuclear antigen (EBNA-1). It also contains a hygromycin resistance gene that is used for eukaryotic selection. […] HEK-293 cells were grown in DMEM with 10% fetal bovine serum (FBS), 250 μg ml^−1 G418 (Life Technologies) and 200 μg ml^−1 gentamicin or penicillin/streptomycin.
For transfection, the cells were grown to 50-60% confluency on 10 cm plates. The plasmid pCEP4 incorporating cDNA inserts for the respective human prostanoid receptor (20 μg) was added to 500 μl of 250 mM CaCl2. […] After 30 min, 9 ml DMEM were added to the mixture. The DNA/DMEM/calcium phosphate mixture was then added to the cells, which had been previously rinsed with 10 ml PBS. The cells were then incubated for 5 hr at 37° C. in humidified 95% air/5% CO2. The calcium phosphate solution was then removed and the cells were treated with 10% glycerol in DMEM for 2 min. The glycerol solution was then replaced by DMEM with 10% FBS. The cells were incubated overnight and the medium was replaced by DMEM/10% FBS containing 250 μg ml^−1 G418 and penicillin/streptomycin. The following day hygromycin B was added to a final concentration of 200 μg ml^−1.
Ten days after transfection, hygromycin B resistant clones were individually selected and transferred to a separate well on a 24 well plate. At confluence each clone was transferred to one well of a 6 well plate, and then expanded in a 10 cm dish. Cells were maintained under continuous hygromycin selection until use.

hEP1 = target: T2, hEP1 (Homo sapiens, UniProt P34995); test: Radioligand binding, hEP1; conditions: [3H]PGE2 competition
T2 construct: expressed in transfected cells
T2 sequence (P34995 1-402): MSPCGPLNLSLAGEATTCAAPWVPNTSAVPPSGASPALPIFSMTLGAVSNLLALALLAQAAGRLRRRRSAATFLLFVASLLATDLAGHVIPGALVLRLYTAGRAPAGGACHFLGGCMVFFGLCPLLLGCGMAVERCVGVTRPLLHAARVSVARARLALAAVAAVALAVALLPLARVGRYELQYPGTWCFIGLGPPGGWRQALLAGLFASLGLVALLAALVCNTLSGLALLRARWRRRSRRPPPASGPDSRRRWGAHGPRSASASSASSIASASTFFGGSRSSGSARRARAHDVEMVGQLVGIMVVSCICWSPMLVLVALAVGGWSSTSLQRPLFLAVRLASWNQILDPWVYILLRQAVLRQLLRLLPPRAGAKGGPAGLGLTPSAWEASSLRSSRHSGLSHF
Procedure: as §1
Plasmids encoding the human EP1, EP2, EP3, EP4, FP, TP, IP and DP receptors were prepared by cloning the respective coding sequences into the eukaryotic expression vector pCEP4 (Invitrogen). The pCEP4 vector contains an Epstein Barr virus (EBV) origin of replication, which permits episomal replication in primate cell lines expressing EBV nuclear antigen (EBNA-1). It also contains a hygromycin resistance gene that is used for eukaryotic selection. The cells employed for stable transfection were human embryonic kidney cells (HEK-293) that were transfected with and express the EBNA-1 protein. These HEK-293-EBNA cells (Invitrogen) were grown in medium containing Geneticin (G418) to maintain expression of the EBNA-1 protein. […]
Radioligand binding studies on plasma membrane fractions prepared for cells stably transfected with the cat or human receptor were performed as follows. […] The pellet was then resuspended in TME buffer to provide a final protein concentration of 1 mg/ml, as determined by Bio-Rad assay. […]
The binding of [^3H](N) PGE2 (specific activity 165 Ci/mmol) was determined in duplicate and in at least 3 separate experiments. […] Competition studies were performed using a final concentration of 2.5 or 5 nM [^3H](N) PGE2 and non-specific binding was determined with 10^−5 M unlabelled PGE2.

- EC50 (hEP3A): 0.608 µM
- IC50 (hEP1): 5.8 µM
SMILES: O=C(O)CCCCCCN1C(=O)CC[C@@H]1CCC(O)Cc1cccc(Cl)c1 (stereo partly drawn) [Example 1, 7-[2S-[3R-Hydroxy-4-(chloro-phenyl)-butyl]-5-oxo-pyrrolidin-1-yl]-heptanoic acid]
